In US10010614B2, “Derivatives of GLP-1 like peptides, and uses thereof” (Novo Nordisk A/S, priority 2013, dated 2018):
pEC50: −log10 of the molar value. Numbered stars: 1 amine (or outer) side, 2 acyl side, 3 side chain; on linkers, the order of the positions; unused ones are H or OH. Square brackets hold non-standard residues; d marks the D form. Side chains are listed from the residue outwards. Peptide text beside a SMILES is read from it. * marks the point of attachment. X2 = O=C(O)CCCCCCCCCCCCCCCCCCC(=O)NC[C@H]1CC[C@H](C(=O)N[C@@H](CCC(=O)NCCOCCOCCN*)C(=O)O)CC1; Suc = O=C(CCC(=O)[*:2])[*:1]; Aib = CC(C)(N)C(=O)O

Columns and labels:
human GLP-1 receptor [1] = molecular target: T1, human GLP-1 receptor (Homo sapiens, UniProt P43220); assay: In vitro potency, CRE luciferase reporter gene assay in BHK cells expressing the human GLP-1 receptor; format: cell-based; conditions: whole cell reporter gene assay, 3 h incubation, no HSA, averages of at least two replicates
T1 construct: expressed in transfected cells; host or cells: membranes prepared from BHK cells (parent line BHKTS13), clone FCW467-12A
T1 sequence (P43220 24-463): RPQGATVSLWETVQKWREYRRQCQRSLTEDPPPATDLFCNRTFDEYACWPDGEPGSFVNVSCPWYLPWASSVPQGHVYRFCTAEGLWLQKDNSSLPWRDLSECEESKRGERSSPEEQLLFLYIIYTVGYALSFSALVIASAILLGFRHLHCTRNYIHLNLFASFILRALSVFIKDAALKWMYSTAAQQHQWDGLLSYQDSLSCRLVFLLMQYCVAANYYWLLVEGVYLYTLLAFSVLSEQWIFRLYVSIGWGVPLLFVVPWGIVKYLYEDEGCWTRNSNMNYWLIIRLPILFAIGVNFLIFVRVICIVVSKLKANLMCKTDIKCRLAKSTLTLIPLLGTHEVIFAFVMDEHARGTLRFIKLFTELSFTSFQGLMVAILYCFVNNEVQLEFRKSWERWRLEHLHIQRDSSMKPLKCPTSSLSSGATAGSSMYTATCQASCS
How it was run: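 Stably transfected BHK cells (5×10^3/well) expressing human GLP-1R with a CRE-luciferase reporter; compounds diluted in buffer with 2% ovalbumin and 0.2% Pluronic F-68, final 1×10^−7 to 1×10^−14 M. Incubated 3 h at 37 °C, 5% CO2, then luminescence read; potency from non-linear log(agonist)–response fit, mean of ≥2 replicates.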

human GLP-1 receptor [2] = molecular target: T1, human GLP-1 receptor; assay: GLP-1 receptor binding, competitive binding assay (125I-GLP-1, SPA) on isolated membranes;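 also: test compounds added at a range of concentrations to membranes from cells expressing the human GLP-1 receptor, scored by displacement of labelled ligand, read with WGA SPA beads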

CC[C@H](C)[C@H](NC(=O)[C@H](Cc1ccccc1)NC(=O)[C@H](CCC(=O)O)NC(=O)[C@H](CCCNC(=N)N)NC(=O)[C@H](C)NC(=O)[C@H](C)NC(=O)[C@H](CCC(N)=O)NC(=O)[C@H](CCC(=O)O)NC(=O)[C@H](CCC(=O)O)NC(=O)[C@H](CC(C)C)NC(=O)[C@H](Cc1ccc(O)cc1)NC(=O)[C@H](CO)NC(=O)[C@H](CO)NC(=O)[C@@H](NC(=O)[C@H](CC(=O)O)NC(=O)[C@H](CO)NC(=O)[C@@H](NC(=O)[C@H](Cc1ccccc1)NC(=O)[C@@H](NC(=O)CNC(=O)[C@H](CCC(=O)O)NC(=O)C(C)(C)NC(=O)[C@@H](N)Cc1c[nH]cn1)[C@@H](C)O)[C@@H](C)O)C(C)C)C(=O)N[C@@H](C)C(=O)N[C@@H](Cc1c[nH]c2ccccc12)C(=O)N[C@@H](CC(C)C)C(=O)N[C@H](C(=O)N[C@@H](CCCNC(=N)N)C(=O)NCC(=O)N[C@@H](CCCNC(=N)N)C(=O)NCC(=O)N[C@@H](CCCCNC(=O)CCC(=O)NCCOCCOCCNC(=O)CC[C@H](NC(=O)[C@H]1CC[C@H](CNC(=O)CCCCCCCCCCCCCCCCCCC(=O)O)CC1)C(=O)O)C(=O)NCC(=O)NCC(=O)N[C@@H](CO)C(=O)N[C@@H](CCCCNC(=O)CCC(=O)NCCOCCOCCNC(=O)CC[C@H](NC(=O)[C@H]1CC[C@H](CNC(=O)CCCCCCCCCCCCCCCCCCC(=O)O)CC1)C(=O)O)C(=O)O)C(C)C [Example 23] (H-H[Aib]EGTFTSDVSSYLEEQAAREFIAWLVRGRGK([Suc-X2])GGSK([Suc-X2])-OH)
pEC50 (human GLP-1 receptor [1]): 10.66
IC50 (human GLP-1 receptor [2]; High HSA IC50 (nM), high serum albumin (2.0% HSA final assay concentration)): 201 nM
IC50 (human GLP-1 receptor [2]; Low HSA IC50 (nM), low serum albumin (max. 0.001% final assay concentration)): 1.4 nM
